Experimental data taken from patent US20180037923A1, “SELECTIVE DETECTION OF LACTIC ACID AND/OR ACETIC ACID BACTERIA OR OF FUNGI” (priority 2015, published 2018).
Values joined by “and” are separate entries in the source; they are usually repeats but may differ in a detail not shown here. Equal values may be shown once.

Experiments:
[1] = test system: Sacch. Diastaticus IFBM; experiment: Agar plate count after contact with antifungal; type: cell-based, Saccharomyces diastaticus; conditions: 400 mg/L; count at contact time 0 h 2.10^5 CFU/mL
Text: (§1) The word “bactericide” refers to a treatment having the effect of reducing a bacterial population by at least three decimal logarithms of colony forming units/ml on an agar plate count of a sample after treatment.
(§2) The toxicity results on yeasts and on bacteria are presented in the table below displaying the duration of exposure of the fungal flora to molecule A1 and the associated fluorescence measurement: yeasts lysis after exposure to the antifungal was confirmed by microscopic examination and methylene blue staining.
(§3) The words “contact time” refer to below, the time of exposure of the microorganisms to the fungicidal product, here molecule A1.
(§4) Below: “No CFU” is the abbreviation for “No Colony forming unit on agar plate count”.
(§5) The toxicity results on yeasts and on bacteria are presented in the table below displaying the duration of exposure of the fungal flora to the molecule A2 and are obtained by enumeration on MRS agar media.

[2] = test system: G. oxydans DSM 7145; experiment: Agar plate count after contact with antifungal; type: cell-based, Gluconobacter oxydans
Text: as §1, §2, §3, §4, §5

[3] = test system: Oenococcus oeni DSM 20252; experiment: Agar plate count after contact with antifungal; type: cell-based
Text: as §1, §2, §3, §4, §5

[4] = test system: Lactobacillus paracasei IFBM; experiment: Agar plate count after contact with antifungal; type: cell-based; conditions: count at contact time 0 h 1.4.10^7 CFU/mL
Text: as §1, §2, §3, §4, §5

[5] = test system: Dekkera anomala IFBM; experiment: Agar plate count after contact with antifungal; type: cell-based; conditions: 400 mg/L; count at contact time 0 h 1.10^5 CFU/mL
Text: as §1, §2, §3, §4, §5

[6] = test system: Pedicoccus damnosus IFBM; experiment: Agar plate count after contact with antifungal; type: cell-based
Text: as §1, §2, §3, §4, §5

[7] = test system: Lactobacillus parabuchneri DSM 5708; experiment: Agar plate count after contact with antifungal; type: cell-based; conditions: count at contact time 0 h 1.4.10^6 CFU/mL
Text: as §1, §2, §3, §4, §5

[8] = test system: Zyggosaccharomyces bailii; experiment: Agar plate count after contact with antifungal; type: cell-based; conditions: 400 mg/L; count at contact time 0 h 3.10^5 CFU/mL
Text: as §1, §2, §3, §4, §5

[9] = test system: Lactobacillus brevis IFBM; experiment: Agar plate count after contact with antifungal; type: cell-based; conditions: count at contact time 0 h 7.10^5 CFU/mL
Text: as §1, §2, §3, §4, §5

[10] = test system: Lactobacillus lindneri DSM 20690; experiment: Agar plate count after contact with antifungal; type: cell-based
Text: as §1, §2, §3, §4, §5

[11] = test system: Brettanomyces bruxellensis Wyeast labs; experiment: Agar plate count after contact with antifungal; type: cell-based
Text: as §1, §2, §3, §4, §5

[12] = test system: Acetobacter aceti DSM 3508; experiment: Agar plate count after contact with antifungal; type: cell-based; conditions: count at contact time 0 h 2.9.10^7 CFU/mL
Text: as §1, §2, §3, §4, §5

[13] = test system: Saccharomyces cerevisae DSM; experiment: Atpmetry check, initial protocol (Filtravette), with plate count; type: cell-based; conditions: Antifungal 4 h contact time
Experimental: (§6) For the molecule A1, an Atpmetry check of the fungal flora destruction and of the antifungal treatment harmlesness on the lactic acid or acetic acid bacterial flora has been done for a contact time of 4 hours or 8 hours and on different strains.
(§7) Strains tested: Oenococcus oeni DSM, Gluconobacter oxydans, B. bruxellensis, S. cerevisae, prepared in MRS broth.
(§8) Materials: Lum-1 ATP meter (model analogous to Profile-1 bioluminometer from New Horizons Diagnostics) was tested with Biothema Ab bioluminescence reagents, namely reagents “ATP Eliminating Buffer”, “Extractant B/S”, “ATP Reagent HS” and 0.45 μm porosity Filtravette™ cuvette-filters from New Horizons Diagnostics.
(§9) Addition of 500 μL of the suspension without fungicidal treatment or with fungicidal treatment inside a 10 mL plastic syringe containing at its end a cell concentrator incorporating a Filtravette™.
(§10) Filtration through the Filtravette™
(§11) Filtravette™ deposit on a Filtravette™ holder with a blotter pad below
(§12) Addition of 50 μL of “ATP Eliminating Buffer” inside the Filtravette
(§13) 10 minutes incubation at room temperature
(§14) Flushing of the “ATP Eliminating Buffer” Reagent through the blotter pad by positive pressure
(§15) Homogenization and 1 minute incubation.
(§16) Addition of 240 μL of “ATP Reagent HS”. Homogenization.
(§17) Insertion of the Filtravette into the Lum-1 drawer and closure of the drawer.

[14] = test system: Brettanomyces bruxellensis; experiment: as above; type: cell-based; conditions: 4 h contact time; without antifungal 2.8.10^6 CFU/500 μL
Experimental: as §6, §7, §8, §9, §10, §11, §12, §13, §14, §15, §16, §17

[15] = test system: Gluconobacter oxydans; experiment: as above; type: cell-based
Experimental: as §6, §7, §8, §9, §10, §11, §12, §13, §14, §15, §16, §17

[16] = test system: Oenococcus oeni DSM; experiment: as above; type: cell-based; conditions: 4 h contact time; without antifungal 0.9.10^7 CFU/500 μL
Experimental: as §6, §7, §8, §9, §10, §11, §12, §13, §14, §15, §16, §17

[17] = test system: Brettanomyces bruxellensis; experiment: Atp bioluminescence, simplified protocol, with plate count; type: cell-based; conditions: Treated 8 h antifungal contact time
Experimental: Use of […] transparent Greiner Bio One sterile flat bottom disposable cuvettes with Biothema AB bioluminescence reagents • 1. […] Addition of 150 μL of “ATP Reagent HS”, Homogenization. • 4.

[18] = test system: Saccharomyces diastaticus; experiment: as above; conditions: Treated (4 h)
[19] = test system: yeasts; experiment: Microscopic examination and methylene blue staining of yeasts after antifungal; type: cell-based
Text: as §2

[20] = 200 mg/L, count at contact time 0 h 6.10^6 CFU/mL

SMILES: C[C@@H]1[C@H](O)[C@@H](C)/C=C/C=C/C=C/C=C/C=C/C=C/C=C/[C@H](O[C@@H]2O[C@H](C)[C@@H](O)[C@H](N)[C@@H]2O)C[C@@H]2O[C@](O)(C[C@@H](O)C[C@@H](O)[C@H](O)CC[C@@H](O)C[C@@H](O)CC(=O)O[C@H]1C)C[C@H](O)[C@H]2C(=O)O [Molecule A1, Amphotericin B]
- Agar plate count contact time 4 h [1]: No CFU
- Agar plate count contact time 4 h ([2]; 200 mg/L, count at contact time 0 h 8.10^8 CFU/mL): 1.10^9 CFU/mL
- Agar plate count contact time 4 h ([2]; 400 mg/L, count at contact time 0 h 8.10^7 CFU/mL): 9.10^7 CFU/mL
- Agar plate count contact time 4 h ([3]; 200 mg/L, count at contact time 0 h 4.10^9 CFU/mL): 6.10^9 CFU/mL
- Agar plate count contact time 4 h ([3]; 400 mg/L, count at contact time 0 h 4.10^7 CFU/mL): 5.10^7 CFU/mL
- Agar plate count contact time 4 h ([4]; 200 mg/L): 2.4.10^7 CFU/mL
- Agar plate count contact time 4 h ([4]; 400 mg/L): 1.10^7 CFU/mL
- Agar plate count contact time 4 h [5]: No CFU
- Agar plate count contact time 4 h ([6]; 200 mg/L, count at contact time 0 h 7.2.10^5 CFU/mL): 8.10^5 CFU/mL
- Agar plate count contact time 4 h ([6]; 400 mg/L, count at contact time 0 h 1.1.10^5 CFU/mL): 2.10^7 CFU/mL
- Agar plate count contact time 4 h ([7]; 200 mg/L): 1.10^6 CFU/mL
- Agar plate count contact time 4 h ([7]; 400 mg/L): 3.10^5 CFU/mL
- Agar plate count contact time 4 h [8]: No CFU
- Agar plate count contact time 4 h ([9]; 200 mg/L): 2.9.10^5 CFU/mL
- Agar plate count contact time 4 h ([9]; 400 mg/L): 3.10^5 CFU/mL
- Agar plate count contact time 4 h [10, 20]: 2.10^6 CFU/mL
- Agar plate count contact time 4 h ([10]; 400 mg/L, count at contact time 0 h 6.10^5 CFU/mL): 7.10^4 CFU/mL
- Agar plate count contact time 4 h [11, 20]: No CFU
- Agar plate count contact time 4 h ([11]; 400 mg/L, count at contact time 0 h 3.10^5 CFU/mL): No CFU
- Agar plate count contact time 4 h ([12]; 200 mg/L): 8.10^8 CFU/mL
- Agar plate count contact time 4 h ([12]; 400 mg/L): 3.10^7 CFU/mL
- Agar plate count with antifungal ([13]; start 5.10^2 CFU/500 μL): time no count on agar
- Atp bioluminescence with antifungal treatment ([13]; start 5.10^2 CFU/500 μL, untreated 206949 and 149508 RLU): 642 RLU
- Agar plate count with antifungal ([13]; start 5.10^3 CFU/500 μL): time no count on agar
- Atp bioluminescence with antifungal treatment ([13]; start 5.10^3 CFU/500 μL, untreated >1000000 RLU): 4665 RLU
- Plate count with antifungal [14]: 0 CFU/500 μL
- Atp bioluminescence with antifungal treatment ([15]; MRS broth, 500 μL analysed, 1.10^7 CFU/500 μL before treatment, 115966 RLU): 77057 RLU
- Plate count with antifungal ([15]; before treatment 1.10^7 CFU/500 μL): 4.1.10^6 CFU/500 μL
- Plate count with antifungal [16]: 4.10^6 CFU/500 μL
- total bioluminescence with lysis agent ([17]; start 2.7.10^2 CFU/100 μL, untreated with lysis agent 26990 and 31661, background 862 and 718 RLU): 933 RLU and 553 RLU
- total bioluminescence with lysis agent ([17]; start 2.7.10^3 CFU/100 μL, untreated with lysis agent 242958 and 265513, background 5346 and 5390 RLU): 4441 RLU and 4433 RLU
- Concentration after treatment ([17]; untreated 2.7.10^2 CFU/100 μL): 0 CFU/100 μL
- Concentration after treatment ([17]; untreated 2.7.10^3 CFU/100 μL): 0 CFU/100 μL
- total bioluminescence in duplicate with lysis agent ([18]; start 7.5.10^1 CFU/100 μL, untreated + extractant 1934 and 1241 RLU): 482 RLU
- luminescent backgroud noise in duplicate without lysis agent after luciferin/luciferase addition ([18]; start 7.5.10^1 CFU/100 μL, untreated background 34 and 34 RLU): 457 RLU and 436 RLU
- total bioluminescence in duplicate with lysis agent ([18]; start 7.5.10^2 CFU/100 μL, untreated + extractant 16239 and 16707 RLU): 4393 RLU
- luminescent backgroud noise in duplicate without lysis agent after luciferin/luciferase addition ([18]; start 7.5.10^2 CFU/100 μL, untreated background 211 and 223 RLU): 3803 RLU and 3837 RLU
- Concentration after treatment ([18]; untreated 7.5.10^1 CFU/100 μL): 0 CFU/100 μL
- Concentration after treatment ([18]; untreated 7.5.10^2 CFU/100 μL): 0 CFU/100 μL
- yeasts lysis after exposure to the antifungal [19]: confirmed
